One experiment concerns naïve T cells. As to the kind of experiment: Intracellular detection of IFN-γ and IL-4 in T cells by flow cytometry. The class given is cell-based, human. The settings on record: T cells activated by IFN-γ primed, matured mo-DCs. On the procedure:
Mo-DC pre-treated in various conditions were co-cultured with naïve T cells for five days and re-stimulated with ionomycin 1 μg/ml and PMA 10 ng/ml for 2.5 h and for 3 h in the presence of a Brefeldin-A, (10 μg/ml final concentration). Cells were then washed and fixed for 15 min (Fix and Penn cell permeabilization kit, Caltag). After one washing step cells were permeabilised and stained with FITC conjugated anti interferon-γ mAB (BD-Pharmigen) and PE conjugated anti IL-4 mAb (Caltag) or with irrelevant isotype control for 30 min. Then cells were washed again, resuspended and analysed by flow cytoflorimetry.
On the technique in general: In flow cytometry, cells or beads pass a laser one at a time.

The nature of experiment [1]: Heparin-agarose affinity chromatography. The class given is binding. The settings on record: salt gradient 0.05-3M NaCl. On the procedure:
Using, affinity chromatography with different buffers (phosphate 20 mM and hepes 20 mM), pH (5.5, 7.4 and 8.0) and CaCl2 concentrations, the binding of NadA to heparin was further investigated. A solution of hepes 20 mM containing 5 μg NadA was added to 100 μl of heparin-agarose pre-equilibrated in the same buffer. After washing, bound protein was eluted using a salt gradient (0.05-3M NaCl). All the fractions from the previous steps were collected and transferred to nitrocellulose membrane using Dot-blot. The protein was detected with a rabbit polyclonal anti-NadA antibody and phosphatase alcalyne-conjugated goat anti-rabbit anti-IgG with its substrate. This protocol has shown a heterogeneous behaviour for NadA. A fraction of the protein elutes at physiological salt concentrations (100-150 mM NaCl) and a further one elutes at high salt concentrations (up to 3M NaCl).

Experiment [2] relates to alternative pathway in the complement system. As to the kind of experiment: Bactericidal assay, complement alternative pathway (NHS, Mg2+/EGTA, E. coli-pET). The class given is biochemical, human. The settings on record: 3 μM, control E. coli-pET. The procedure:
Complement activation by the alternative pathway was also investigated. […] The susceptibility to complement-mediated lysis was determined by incubating E. coli-NadA and E. coli-pET with 0-75% NHS at 37° C. for 15 min under agitation. The number of surviving bacterial cells was measured by serial agar plating and colony counting.

The subject of another experiment is monocytes. As to the kind of experiment: Apoptosis and survival of monocytes (caspase-3 assay, MTT assay). The class given is cell-based, human. On the procedure:
A) Caspase-3 assay, B) MTT assay.
The survival effect of NadA on monocytes was investigated. […] Apoptosis was not increased after a 40 hour exposure to NadAΔ351-405 or LPS. […] NadA survival effect was compared with the action of LPS or medium alone.
In general terms: Formazan colour is commonly taken as a measure of viable cells.

In experiment [3] the test system is human monocytes. As to the kind of experiment: Surface markers of human monocytes. The format is cell-based. The source says: (§1) The functional effect of NadA on human monocytes and macrophages was investigated using a soluble recombinant mutant lacking the membrane anchor and a full length protein expressed in E. coli OMV or N meningitidis OMV. To better define the immuno-modulatory activity of NadA, the cells were stimulated with protein plus or minus both microbial stimulus (LPS) and immunological stimulus (IFNγ).
(§2) The effect of NadAΔ351-405 on monocyte and macrophage cells was further investigated by measuring the expression of the antigen presentation marker MHC-II, the co-stimulatory molecules CD80 and CD86 and the cell adhesion molecule ICAM-1.

In experiment [4] the test system is mo-DCs. As to the kind of experiment: Real-time PCR of cytokine mRNA in mo-DCs. The format is cell-based, human. The procedure:
Mo-DC were pre-treated or not with IFN-γ 1000 U/ml and stimulated with NadA […] and LPS […] for 3-5-8 h. Treated and untreated cells were pelleted and used for RNA isolation. Total RNA was extracted using the TRIzolÒ reagent (GibcoBRL) according to the manufacturer's instruction, precipitated and resuspended in […] of RNAse free water (Gibco). RNA was quantified with a fluorescence spectrophotometer (BeckmanDU 530). First strand cDNA was prepared from […] of total RNA by using the Superscript™ II Reverse Transcriptase (Invitrogen) with oligodT primers (Sigma Genosys). The cDNA levels of IL12p35, IL12p40, IL-23p19, TNF-α and IL-6 were quantified by Real Time quantitative PCR using a qPCRTM Core Kit for Sybr Green I (Eurogentec) with a GeneAmp 5700 Sequence Detection System according to the manifacturer's instructions (Applied Biosystems). After an initial denaturation step at 95° C. for 10 min, temperature cycling was initiated. Each cycle consisted of 30 sec at 95° C. and 30 sec at 60° C. […]
All amplification products were cloned into a TOPO TA vector (Invitrogen) and quantified by Beckman DU 530 spectrophotometer. […]
The cDNA levels during the linear phase of amplification were normalized against HMBS. […] CT values were determined by the GeneAmp 5700 SDS software using fluorescence threshold manually set and exported into Excel for analysis.
Background: Real-time PCR tracks product formation cycle by cycle.

In experiment [5] the test system is mo-DCs. As to the kind of experiment: Morphology of mo-DCs (light microscopy). The class given is cell-based, human. The settings on record: IFN-γ priming 18 hours, NadAΔ351-405 1.5 μM, 3 hours.
Experiment [6] has as its system human monocytes. As to the kind of experiment: Long-term differentiation of monocytes, surface markers. The format is cell-based. The settings on record: culture up to 7 days. The procedure:
In order to evaluate the possible long-term, differentiation effect of NadA, adherent monocytes were treated with medium alone, NadAΔ351-405 or E. coli LPS and cells were cultured for seven days. At day 4 the agonists were added again to ensure a constant stimulation. Cell morphology was monitored by light microscopy after 1, 2, 3 and 7 days. […] NadAΔ351-405 thus induces both alteration cell morphology and distribution, this is a good indicator of monocyte activation and differentiation.
The long-term, differentiation effect of NadAΔ351-405 on monocytes was further investigated by measuring the expression of the antigen presentation marker MHC-II, co-stimulatory molecules CD80 and CD86 and cell-specific molecules: CD14 (monocyte), CD16 (macrophage) and CD1a (Dendritic cell).

The test system of the next experiment is human macrophages. As to the kind of experiment: Surface markers of human macrophages. The class given is cell-based.
Source text: as §1, §2

Bounds are passed on as bounds.

Turning to NadAΔ351-405, in the experiment with naïve T cells, the “IFN-γ+ T cells, % of total T cell population” value is given as 13-31%; the “IFN-γ+/IL-4+ T cells, % of total T cell population” value is 4-12%; the “IL-4+ T cells, % of total T cell population” value is listed as 3-18%. Also, in experiment [1], the “NaCl concentration of elution from heparin-agarose, further fraction” value was “up to 3 M” and the “NaCl concentration of elution from heparin-agarose, one fraction” value was 100 to 150 mM. Moreover, the “effect on the alternative pathway” value in experiment [2] was “partially inhibit”. In the experiment with monocytes, the “apoptotic effect compared with medium-treated monocytes” value is on record as “four times less” and the “apoptotic effect compared with the amount induced by LPS” value is reported as “two times less”. In the experiment on human monocytes [3] (co-stimulation with IFN-γ), the CD80 expression result is on record as “increased”. In the experiment with human monocytes [3] (with LPS or IFN-γ), the “CD86 or HLA-DR expression” value was “No NadA immunomodulatory effect”. Moreover, the “IL12-p40, IL12-p35 and IL-23p19 transcription” value in the experiment with mo-DCs [4] is “increased by NadA only if cells were primed with IFN-γ”. The “transcription activities of genes encoding IL-6, TNFα, p40, p35 and p19 relative to LPS-activated cells” value in the experiment on mo-DCs [4] (IFN-γ primed mo-DCs) is under 1%. Also, the cell morphology entry in the experiment on mo-DCs [5] is “some cells became elongated and tended to cluster”. Further, in the experiment on human monocytes [6], the CD1a expression result is “not increased”; the CD14 expression entry was “steadily increased on days two and three”; the CD16 expression result was “increased more intensely than in the control cells in the first three days”; the CD80 expression result is recorded as “not over-expressed”. In the experiment with human monocytes [6], the CD86 expression entry is reported as “increased more intensely than in the control cells in the first three days” and the HLA-DR surface expression entry is “reached a maximal expression level on day three”. In addition, the ICAM-1 expression result with human macrophages was “increased”. The HLA-DR expression entry in the experiment with human macrophages (IFN-γ co-stimulation) was “greatly enhanced”. Moreover, in the experiment on human macrophages (co-stimulation with IFN-γ), the CD80 expression entry is given as “increased”. Also, the CD86 expression entry in the experiment on human macrophages (co-stimulation with LPS) was “Partial stimulation”.

The values above are taken from patent US20110008279A1, “Methods and Compositions Relating to Adhesins as Adjuvants” (priority 2005, published 2011).
